In US8614247B2, “Methods for preventing, attenuating or treating pulmonary hypertension using a serotonin transporter inhibitor, and pharmaceutical compositions for the treatment thereof” (Institut National de la Sante et de la Recherche Medicale, priority 2003, dated 2013):

Tests used:
[1] = tested on: human pulmonary artery smooth muscle cells (PA-SMCs); assay: 5-HT-induced proliferation of human PA-SMCs ([3H]thymidine incorporation); type: cell-based; conditions: cells in 0.2% FCS; for 5-HT-induced increase in [3H]thymidine incorporation (mitogenic response to 5-HT): drug at 10^−5 M, added before 5-HT
Protocol: Effect of 5-HT on the Proliferation of Human Pulmonary Artery Smooth Muscle Cells (PA-SMCs)
The methods used for the culture and the characterization of human PA-SMCs have been previously described (Eddahibi, Humbert et al. 2001). In brief, PA-SMCs were obtained from patients undergoing lung resection for cancer. They were seeded in 24-well plates at a density of 5×10^4 cells/well and allowed to adhere in DMEM supplemented with 15% fœtal calf serum (FCS). Cells were then subjected to 48 h of growth arrest in medium containing only 0.2% FCS before being incubated in DMEM supplemented with 0.2% FCS, 0.6 mM of ascorbic acid, 0.1 mM of iproniazid (a monoamine oxidase inhibitor), 0.6 μCi/mL of [^3H]thymidine, with or without 5-HT (10^−8 to 10^−6 M). […] Each of these drugs was added 20 min before 5-HT. After incubation for 24 hours, cells were washed twice with PBS, treated with ice-cold 10% trichloroacetic acid (1 ml/well), and dissolved in 0.1 N NaOH (0.5 ml/well). The incorporated radioactivity was counted and reported as cpm per well.

5-HTT = 5-HTT (Rattus norvegicus, UniProt P31652); conditions: cited from earlier work
experimental hypoxic PH = conditions: previous studies (Eddahibi, Raffestin et al. 1998); cited from earlier work
mice in normoxia = assay: Physiological parameters during normoxia after treatment; type: in vivo, mice (C57BL6/J); conditions: control mice 88±7 mmHg
[2] = tested on: mice exposed to acute hypoxia; assay: Hemodynamic response (RVSP) of normoxic mice to acute hypoxia; type: in vivo, mice (C57BL6/J); conditions: two-day pretreatment; for pressure (RVSP) response to acute hypoxia: antagonists 2 mg/kg/day i.p., compared with vehicle-treated controls
Protocol: All experiments were performed using adult male mice (C57BL6/J, 8 weeks old) in conformity with the institutional guidelines that are in compliance with national and international laws and policies.
Mice were anaesthetized with ketamine (60 mg/kg, i.p) and xylazine (10 mg/kg, i.p). The trachea was cannulated, and the lungs were ventilated with room air at a tidal volume of 0.2 ml and a rate of 90 breaths per minute. Systemic arterial pressure was determined by catheterization of the carotid artery. A 26-gauge needle was then introduced percutaneously into the right ventricle via the subxyphoid approach. Right ventricular systolic pressure (RVSP) was measured using a Gould P10 EZ pressure transducer connected to pressure modules and a Gould TA 550 recorder. RVSP and heart rate were recorded first while the animal was ventilated with room air and then after 5 min of ventilation with hypoxic gas mixture (8% O2, 92% N2). […] If the heart rate fell below 300 bpm, measurements were excluded from analysis.
To investigate the effects of 5-HTT inhibition and/or 5-HT receptor blockade on acute hypoxic vasoconstriction, nine groups of mice (6-7 in each group) were studied. […] The last group consisted of control animals that received distilled water by gavage. The treatments were performed for two days and acute hypoxic vasoconstriction was measured on the following day one hour after the last treatment.

[3] = tested on: mice exposed to chronic hypoxia; type: in vivo, mice (C57BL6/J); conditions: for muscularization of distal pulmonary vessels: vs control mice under similar hypoxic conditions; for hypoxia-induced increase in RVSP: 2-week hypoxia (10% O2), daily treatment: citalopram, fluoxetine 10 mg/kg/day, ketanserin 2 mg/kg/day, GR127935 2 or 10 mg/kg/day, vs vehicle
Protocol: All experiments were performed using adult male mice (C57BL6/J, 8 weeks old) in conformity with the institutional guidelines that are in compliance with national and international laws and policies. […] To establish the hypoxic environment, the chamber was flushed with a mixture of room air and nitrogen, and the gas was recirculated. The chamber environment was monitored using an oxygen analyzer (Servomex OA150, Crowborough, England). Carbon dioxide was removed by soda lime granules, and excess humidity was prevented by cooling the recirculation circuit. The chamber temperature was maintained at 22-24° C. The chamber was opened every other day for 1 hour to clean the cages and replenish food and water supplies. Normoxic mice were kept in the same room, with the same light-dark cycle. […] After incision of the abdomen and diaphragm, a 26-gauge needle connected to a pressure transducer was inserted into the right ventricle, and RVSP was recorded immediately. Blood was then sampled for hematocrit determination. […] The right ventricle (RV) was dissected from the left ventricle+septum (LV+S), and these dissected samples were weighed. The lungs were fixed by intratracheal infusion of 4% aqueous buffered formalin at a pressure of 23 cm H2O. The entire specimen was immersed in a bath of the same fixative for one week. A midsagittal slice of the right lung including the apical, azygous and diaphragmatic lobes was processed for paraffin embedding. Sections (5 μm thick) were cut for light microscopy and stained with hematoxylin-phloxin-saffron and orcein-picroindigo-carmine. In each mouse, a total of 50-60 […] vessels accompanying either alveolar ducts or alveoli were analyzed by an observer blinded to treatment. Each vessel was categorized as nonmuscular (no evidence of any vessel wall muscularization), partially muscular (SMCs identifiable in less than three-fourths of the vessel circumference), or fully muscular (SMCs in more than three-fourths of the vessel circumference). […] The percentage of pulmonary vessels in each muscularization category was determined by dividing the number of vessels in that category by the total number counted in the same experimental group. […] The animals were treated once a day during the two-week exposure to hypoxia.

rats = conditions: Keegan et al. 2001; cited from earlier work
[4] = tested on: rat lung SMC and lung fibroblasts; conditions: cited from earlier work
[5] = 2-week chronic hypoxia, daily treatment

Sequence of 5-HTT (P31652 whole entry): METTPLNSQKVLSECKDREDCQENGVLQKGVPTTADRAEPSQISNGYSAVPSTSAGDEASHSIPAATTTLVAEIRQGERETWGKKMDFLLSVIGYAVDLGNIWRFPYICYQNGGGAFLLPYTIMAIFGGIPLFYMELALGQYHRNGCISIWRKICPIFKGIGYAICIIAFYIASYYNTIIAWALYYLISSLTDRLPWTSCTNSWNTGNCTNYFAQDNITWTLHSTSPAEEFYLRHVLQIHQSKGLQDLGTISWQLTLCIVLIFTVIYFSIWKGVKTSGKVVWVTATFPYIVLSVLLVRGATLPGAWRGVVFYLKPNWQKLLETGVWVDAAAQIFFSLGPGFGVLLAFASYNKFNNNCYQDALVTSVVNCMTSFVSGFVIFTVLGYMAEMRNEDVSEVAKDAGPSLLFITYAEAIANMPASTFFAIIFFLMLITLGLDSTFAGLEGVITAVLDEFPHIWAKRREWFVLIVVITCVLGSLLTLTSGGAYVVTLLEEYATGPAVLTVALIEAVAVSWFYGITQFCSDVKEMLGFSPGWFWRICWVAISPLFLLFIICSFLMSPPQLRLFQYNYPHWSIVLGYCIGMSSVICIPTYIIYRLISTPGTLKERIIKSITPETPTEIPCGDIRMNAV

Q: With `NCCc1c[nH]c2ccc(O)cc12` [5-HT, 5-hydroxytryptamine] as the molecule, how does the “[3H]thymidine incorporation” value ([1]; 5-HT 10^−8-10^−6 M) read?
A: Its value is “concentration-dependent increase”.

Q: Which 5-HTT substrate (5-HTT) does the source give for `NC1=NCC(c2ccccc2)O1` (stereo not shown) [a minorex] here?
A: The 5-HTT substrate was 5-HTT substrates.

Q: With `Cl.Cn1ccc2cc3c(cc21)CCN3C(=O)Nc1cccnc1` [SB 206553, N-3-pyridinyl-3,5-dihydro-5-methyl-benzo[1,2-b:4,5-b′]dipyrrole-1(2H)-carboxamide hydrochloride] as the molecule, how does the “5-HT-induced increase in [3H]thymidine incorporation (mitogenic response to 5-HT)” value (“5-HT-induced increase” for short) [1] read?
A: The value was “not affected”.

Q: With `CCN[C@@H](C)Cc1cccc(C(F)(F)F)c1` [dexfenfluramine] as the molecule, how does the “development of experimental hypoxic PH” value (experimental hypoxic PH) read?
A: Its value is “not to attenuate”.

Q: For `CN(C)CCCC1(c2ccc(F)cc2)OCc2cc(C#N)ccc21` (stereo not shown) [citalopram], which “Mean systemic arterial pressure” value (mice in normoxia) is on record?
A: The value was 87±7 mmHg.

Q: Which results are given for `O=C(c1ccc(F)cc1)C1CCN(CCn2c(=O)[nH]c3ccccc3c2=O)CC1` [ketanserin]?
A: 5-HT-induced increase in [3H]thymidine incorporation (mitogenic response to 5-HT) [1]: not affected; pressure (RVSP) response to acute hypoxia [2]: altered neither the response to acute hypoxia; Mean systemic arterial pressure (mice in normoxia): 83±4 mmHg

Q: With `CC(C)(N)Cc1ccc(Cl)cc1` [chlorphentermine] as the molecule, how does the 5-HTT substrate (5-HTT) read?
A: The 5-HTT substrate was 5-HTT substrates.

Q: With `CNCCC(Oc1ccc(C(F)(F)F)cc1)c1ccccc1` (stereo not shown) [fluoxetine] as the molecule, how does the “5-HT-induced increase” value [1] read?
A: The value was “completely abolished”.

Q: What about the “baseline RVSP” value ([2]; 10 mg/kg/day by gavage, normoxic ventilation) of the same molecule?
A: The value was “did not alter”.

Q: What about the “Mean systemic arterial pressure” value (mice in normoxia) of the same molecule?
A: The value was 86±5 mmHg.

Q: What about the “muscularization of distal pulmonary vessels” value [3, 5] of the same molecule?
A: The value was “markedly attenuated”.

Q: What about the “hypoxia-induced increase in RVSP” value [3] of the same molecule?
A: Its value is “significantly attenuated”.

Q: For `COc1ccc(NC(=O)c2ccc(-c3ccc(-c4noc(C)n4)cc3C)cc2)cc1N1CCN(C)CC1` [GR127935, 2′-methyl-4′-(5-methyl-[1,2,4]oxadiazol-3-yl)-biphenyl-4-carboxylic acid [4-methoxy-3-(4-methyl-piperazine-1-yl)-phenyl]amide], which “5-HT-induced increase” value [1] is on record?
A: The value was “not affected”.

Q: What about the “pressure (RVSP) response to acute hypoxia” value [2] of the same molecule?
A: Its value is “abolished the pressure response to hypoxia”.

Q: And the “Mean systemic arterial pressure” value (mice in normoxia)?
A: Its value is 85±6 mmHg.

Q: What about the “muscularization of distal pulmonary vessels” value [3, 5] of the same molecule?
A: The value was “did not affect”.

Q: And the “right ventricular hypertrophy (RV/LV+S ratio)” value ([3]; 2-week chronic hypoxia, daily treatment, vs hypoxic vehicle-treated mice (41.5±1.5%))?
A: The value was “did not differ”.

Q: What about the “hypoxia-induced increase in RVSP” value [3] of the same molecule?
A: Its value is “did not differ”.

Q: And the “protection against development of PH” value (rats)?
A: The value was “partial protection”.

Q: Which mitogenic effect [4] does the source give for `CCNC(C)Cc1cccc(C(F)(F)F)c1` (stereo not shown) [fenfluramine] here?
A: Its mitogenic effect is “mitogenic”.
